Data reported in PMC5810560 (Chemico-biological interactions, 2017).
“And” between values parts separate entries of the source, which are not always exact repeats. Equal entries are not always repeated.

Assay: RS194B biodistribution / brain penetration in perfused tissues
Conditions: for Tissue level at Cmax, percent of administered dose, Liver / Tissue level at Cmax, percent of administered dose, Lung / Tissue level at Cmax, percent of administered dose, Spleen / Tissue level at Cmax, percent of administered dose, Heart / Tissue level at Cmax, percent of administered dose, Kidney / Tissue level at Cmax, percent of administered dose, Brain: total tissue weight
[1] = guinea pig, after IV administration, post dose

## O=C(C=NO)NCCN1CCCCCC1 [RS194B]
Guinea pig, IM 50 mg/kg
  Tissue level at Cmax, percent of administered dose, Liver: 7.04 ± 0.61% of administered dose
  Tissue level at Cmax, percent of administered dose, Lung: 0.67 ± 0.16% of administered dose
  Tissue level at Cmax, percent of administered dose, Spleen: 0.03 ± 0.01% of administered dose
Guinea pig, IM exposure
  brain-to-plasma ratio at later time points over ratio at Tmax: 3.2 times
Guinea pig, IV 10 mg/kg, 0.08 hr (brain Cmax)
  brain/ plasma: 0.04 ± 0.001
Guinea pig, IV 10 mg/kg, 0.25 hr
  brain/ plasma: 0.040 ±0.002
Guinea pig, IV 10 mg/kg, 0.5 hr
  brain/ plasma: 0.03 ± 0.002
Guinea pig, IV 10 mg/kg, 1 hr
  brain/ plasma: 0.02 ± 0.001
Guinea pig, IV 10 mg/kg, 2 hr
  brain/ plasma: 0.03 ± 0.003
Guinea pig, IV 10 mg/kg, 4 hr
  brain/ plasma: 0.05 ± 0.003
Guinea pig, IV 10 mg/kg, 8 hr
  brain/ plasma: 0.09 ± 0.011
Guinea pig, IV 10 mg/kg, 24 hr
  brain/ plasma: 0.11 ± 0.035
Guinea pig, IV 10 mg/kg
  Tissue level at Cmax, percent of administered dose, Heart: 0.05 ± 0.01% of administered dose
  Tissue level at Cmax, percent of administered dose, Kidney: 5.19 ± 0.23% of administered dose
  Tissue level at Cmax, percent of administered dose, Liver: 8.76 ± 0.32% of administered dose
  Tissue level at Cmax, percent of administered dose, Lung: 0.45 ± 0.04% of administered dose
  Tissue level at Cmax, percent of administered dose, Spleen: 0.04 ± 0.01% of administered dose
Guinea pig, IV 10 mg/kg, 10 mg/kg
  Tissue level at Cmax, percent of administered dose, Brain: 0.03% of administered dose and 0.03 ± 0.002% of administered dose
Guinea pig, IV 50 mg/kg, 0.08 hr (brain Cmax)
  brain/ plasma: 0.09 ± 0.006
Guinea pig, IV 50 mg/kg, 0.25 hr
  brain/ plasma: 0.08 ± 0.005
Guinea pig, IV 50 mg/kg, 0.5 hr
  brain/ plasma: 0.05 ± 0.003
Guinea pig, IV 50 mg/kg, 1 hr
  brain/ plasma: 0.03 ± 0.014
Guinea pig, IV 50 mg/kg, 2 hr
  brain/ plasma: 0.03 ± 0.002
Guinea pig, IV 50 mg/kg, 4 hr
  brain/ plasma: 0.07 ± 0.004
Guinea pig, IV 50 mg/kg, 8 hr
  brain/ plasma: 0.07 ± 0.009
Guinea pig, IV 50 mg/kg, 24 hr
  brain/ plasma: 0.18 ± 0.062
Guinea pig, IV 50 mg/kg
  Tissue level at Cmax, percent of administered dose, Brain: 0.09 ± 0.01% of administered dose
  Tissue level at Cmax, percent of administered dose, Heart: 0.06 ± 0.01% of administered dose
  Tissue level at Cmax, percent of administered dose, Kidney: 5.16 ± 0.52% of administered dose
  Tissue level at Cmax, percent of administered dose, Liver: 8.60 ± 0.48% of administered dose
  Tissue level at Cmax, percent of administered dose, Lung: 0.95 ± 0.12% of administered dose
  Tissue level at Cmax, percent of administered dose, Spleen: 0.08 ± 0.01% of administered dose
Guinea pig, IV 100 mg/kg, 0.08 hr (brain Cmax)
  brain/ plasma: 0.12 ± 0.006
Guinea pig, IV 100 mg/kg, 0.25 hr
  brain/ plasma: 0.10 ± 0.008
Guinea pig, IV 100 mg/kg, 0.5 hr
  brain/ plasma: 0.12 ± 0.007
Guinea pig, IV 100 mg/kg, 1 hr
  brain/ plasma: 0.05 ± 0.001
Guinea pig, IV 100 mg/kg, 2 hr
  brain/ plasma: 0.05 ± 0.005
Guinea pig, IV 100 mg/kg, 4 hr
  brain/ plasma: 0.08 ± 0.005
Guinea pig, IV 100 mg/kg, 8 hr
  brain/ plasma: 0.08 ± 0.010
Guinea pig, IV 100 mg/kg, 24 hr
  brain/ plasma: 0.06 ± 0.008
Guinea pig, IV 100 mg/kg
  Tissue level at Cmax, percent of administered dose, Brain: 0.11 ± 0.01% of administered dose
  Tissue level at Cmax, percent of administered dose, Heart: 0.05 ± 0.01% of administered dose
  Tissue level at Cmax, percent of administered dose, Kidney: 3.81 ± 0.42% of administered dose
  Tissue level at Cmax, percent of administered dose, Liver: 8.32 ± 0.42% of administered dose
  Tissue level at Cmax, percent of administered dose, Lung: 0.77 ± 0.04% of administered dose
  Tissue level at Cmax, percent of administered dose, Spleen: 0.07 ± 0.01% of administered dose
Guinea pig, IV 200 mg/kg, 0.08 hr (brain Cmax)
  brain/ plasma: 0.18 ± 0.013
Guinea pig, IV 200 mg/kg, 0.25 hr
  brain/ plasma: 0.19 ± 0.012
Guinea pig, IV 200 mg/kg, 0.5 hr
  brain/ plasma: 0.27 ± 0.080
Guinea pig, IV 200 mg/kg, 1 hr
  brain/ plasma: 0.15 ± 0.028
Guinea pig, IV 200 mg/kg, 2 hr
  brain/ plasma: 0.08 ± 0.009
Guinea pig, IV 200 mg/kg, 4 hr
  brain/ plasma: 0.08 ± 0.005
Guinea pig, IV 200 mg/kg, 8 hr
  brain/ plasma: 0.12 ± 0.010
Guinea pig, IV 200 mg/kg, 24 hr
  brain/ plasma: 0.22 ± 0.071
Guinea pig, IV 200 mg/kg
  Tissue level at Cmax, percent of administered dose, Heart: 0.08 ± 0.01% of administered dose
  Tissue level at Cmax, percent of administered dose, Kidney: 3.65 ± 0.48% of administered dose
  Tissue level at Cmax, percent of administered dose, Liver: 5.25 ± 0.32% of administered dose
  Tissue level at Cmax, percent of administered dose, Lung: 0.85 ± 0.04% of administered dose
  Tissue level at Cmax, percent of administered dose, Spleen: 0.12 ± 0.01% of administered dose
Guinea pig, IV 200 mg/kg, 200 mg/kg
  Tissue level at Cmax, percent of administered dose, Brain: 0.18% of administered dose and 0.18 ± 0.01% of administered dose
[1]
  time of tissue Cmax, all tissues except the liver: 5 to 15 min
  time of tissue Cmax, liver: 30 min
Mean over the dose range, IV
  heart, percent of the administered dose at Cmax: 0.06%
Tissues other than liver and kidney, IV
  all other tissues, percent of the administered dose at Cmax: less than 1%
